Structures can show the parent of a compound that is named as a salt. Where two headings read alike, the source gives them in different places.
Legend:
AMD = conditions: cited from earlier work
[1] = Ocular biodistribution study following ocular administration; format: in vivo, Dutch-Belted rabbits; conditions: formulation G, 0.08 mg/eye once; for concentration at 15 min / concentration at 30 min / concentration at 3 h: male, Dutch-Belted, rabbit, posterior sclera and choroid, other: ocular administration, 0.08 mg/eye
Protocol: The objective of this study was to determine the ocular biodistribution of squalamine lactate formulation G (see composition above) when given once by ocular administration to male Dutch-Belted rabbits.
The study design was as follows:
Body weight measurements were taken for randomization/dose calculation purposes. […] Following dose administration, blood samples were collected at specified time points and plasma was prepared. After blood sample collection, the animals were euthanized and a necropsy was performed to collect the following ocular tissues: aqueous humor, vitreous humor, sensory retina and choroid/sclera.

[2] = tested on: human vascular endothelial cells (HUVEC); experiment: Inhibition of VEGF induced tube formation by HUVEC; format: cell-based; conditions: 50 nM (tested at 50, 100, 200 nM), 24 hrs, Matrigel with VEGF
Protocol: Squalamine lactate was mixed in solution at 50, 100 or 200 nM concentration with a suspension of human vascular endothelial cells (HUVEC). The suspension was then immediately plated on Matrigel which contained multiple growth factors including vascular endothelial cell growth factor (VEGF). The plates were incubated at 37° C. in an atmosphere of […] for 24 hrs and then the plates were photographed.

[3] = any animals (15 min, 30 min, 3 hrs)
[4] = mean of eyes, read-out: Squalamine in posterior sclera and choroid, Mean

SMILES: CC(C)[C@@H](CC[C@@H](C)[C@H]1CC[C@H]2[C@@H]3[C@H](O)C[C@H]4C[C@@H](NCCCNCCCCN)CC[C@]4(C)[C@H]3CC[C@]12C)OS(=O)(=O)O [Squalamine, ([6-[(3S,5R,7R,10S,13R,145)-3-[3-(4-aminobutylamino)propylamino]-7-hydroxy-10,13-dimethyl-2,3,4,5,6,7,8,9,11,12,14,15,16,17-tetradecahydro-1H-cyclopenta[a]phenanthren-17-yl]-2-methylheptan-3-yl]hydrogen sulfate)]
- visual acuity (AMD; IV infusion, after the first four to five weeks of administration): good gains in visual acuity
- plasma half-life (AMD; human subjects, 40 mg dose, intravenous infusion): short
- adverse reactions of intravenous dosing (AMD; intravenous dosing, human): local infusion-site reactions
- Squalamine in posterior sclera and choroid ([1]; 30 min, An#105 left eye): BQL
- Level of squalamine in aqueous humor [1, 3]: No quantifiable levels
- Level of squalamine in vitreous humor [1, 3]: No quantifiable levels
- concentration at 15 min ([1]; An#101 left eye, read-out: Squalamine in posterior sclera and choroid): 101 ng/g
- concentration at 15 min ([1]; An#101 right eye, read-out: Squalamine in posterior sclera and choroid): 26.6 ng/g
- concentration at 15 min ([1]; An#102 left eye, read-out: Squalamine in posterior sclera and choroid): 44.2 ng/g
- concentration at 15 min ([1]; An#102 right eye, read-out: Squalamine in posterior sclera and choroid): 145 ng/g
- concentration at 15 min ([1]; An#103 left eye, read-out: Squalamine in posterior sclera and choroid): 195 ng/g
- concentration at 15 min ([1]; An#103 right eye, read-out: Squalamine in posterior sclera and choroid): 31.7 ng/g
- concentration at 15 min [1, 4]: 90.6 ng/g
- concentration at 30 min ([1]; 30 min, An#104 left eye, read-out: Squalamine in posterior sclera and choroid): 54.4 ng/g
- concentration at 30 min ([1]; 30 min, An#104 right eye, read-out: Squalamine in posterior sclera and choroid): 121 ng/g
- concentration at 30 min ([1]; 30 min, An#105 right eye, read-out: Squalamine in posterior sclera and choroid): 78.9 ng/g
- concentration at 30 min ([1]; 30 min, An#106 left eye, read-out: Squalamine in posterior sclera and choroid): 96.7 ng/g
- concentration at 30 min ([1]; 30 min, An#106 right eye, read-out: Squalamine in posterior sclera and choroid): 94.1 ng/g
- concentration at 30 min ([1]; 30 min, mean of eyes, read-out: Squalamine in posterior sclera and choroid, Mean): 89 ng/g
- concentration at 3 h ([1]; An#107 left eye, read-out: Squalamine in posterior sclera and choroid): 23.9 ng/g
- concentration at 3 h ([1]; An#107 right eye, read-out: Squalamine in posterior sclera and choroid): 149 ng/g
- concentration at 3 h ([1]; An#108 left eye, read-out: Squalamine in posterior sclera and choroid): 26 ng/g
- concentration at 3 h ([1]; An#108 right eye, read-out: Squalamine in posterior sclera and choroid): 34.6 ng/g
- concentration at 3 h ([1]; An#109 left eye, read-out: Squalamine in posterior sclera and choroid): 71.8 ng/g
- concentration at 3 h ([1]; An#109 right eye, read-out: Squalamine in posterior sclera and choroid): 51.1 ng/g
- concentration at 3 h [1, 4]: 59.4 ng/g
- HUVEC tube formation on Matrigel [2]: disrupts tube formation
